The source made the active and inactive calls.
Tests used:
[1] = Trypanosoma cruzi growth suppression in host cells – NIH3T3 host cells, beta-gal luminescence, confirmation (AID 2044); type: functional, cell-based;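 also: intracellular parasites grown in NIH/3T3 mouse fibroblasts as host cells; luminescent beta-galactosidase reporter signal from transgenic T. cruzi replicating inside host cells; inhibitors lower the luminescence signal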
[2] = Luminescence Cell-Based Secondary HTS screen to identify cytotoxic compounds of NIH3T3 cells. [Related pubchem assays: 1885, 1968 ]; type: functional
[3] = NIH3T3 cell viability loss – ATP luminescence, mouse fibroblasts, counter-screen, dose response (AID 2010); type: functional, cell-based;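 also: cells exposed to compound for about 90 hours before reading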
[4] = molecular target: Genome polyprotein (Hepatitis C virus, UniProt Q2Q167); assay: disruption of hepatitis C core self-association – biochemical, TR-FRET, dose response (AID 2159); set-up: species or system Hepacivirus hominis;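 also: blocks dimerization of HCV core protein measured by TR-FRET between tagged core106 pairs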
[5] = molecular target: T1, Probable nicotinate-nucleotide adenylyltransferase (Staphylococcus aureus (strain N315), UniProt P65502); type: functional, Staphylococcus aureus subsp. aureus N315;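 as to IC50 Mean: confirmatory dose-response retesting of NadD inhibitor hits first found in an ultra-high-throughput screen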
[6] = molecular target: T1, Probable nicotinate-nucleotide adenylyltransferase; type: functional, Staphylococcus aureus subsp. aureus N315; conditions: read-out: IC50_Mean
[7] = molecular target: Estrogen receptor beta (Homo sapiens, UniProt Q92731);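 also: recombinant ER-beta bound to coactivator SRC1 peptide in presence of estradiol agonist; inhibitors block coactivator peptide binding and lower the FRET signal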
[8] = molecular target: T2, RNA-binding protein pos-1 (Caenorhabditis elegans, UniProt G5EF15); assay: disruptors of C. elegans POS-1 RNA interaction – biochemical, fluorescence polarization, dose response (AID 1964);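 also: purified POS-1 fused to maltose binding protein made in E. coli; potency of compounds blocking POS-1 binding to fluorescent RNA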
T2 sequence (G5EF15 whole entry): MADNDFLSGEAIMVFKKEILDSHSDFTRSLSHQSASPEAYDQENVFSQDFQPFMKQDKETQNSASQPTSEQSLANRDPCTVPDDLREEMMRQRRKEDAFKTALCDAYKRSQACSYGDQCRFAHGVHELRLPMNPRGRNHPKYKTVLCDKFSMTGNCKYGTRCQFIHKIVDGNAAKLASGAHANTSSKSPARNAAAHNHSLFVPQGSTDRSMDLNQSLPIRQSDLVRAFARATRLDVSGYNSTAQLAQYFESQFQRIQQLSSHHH

[9] = Luminescence Cell-Based Dose Response HTS to Identify Inhibitors of 5'UTR Stem-Loop Driven Prion Protein mRNA Translation in H4 Neuroglioblastoma Cells. [Related pubchem assays: 1827 (Project Summary), 1813 (Primary HTS)]; type: functional
[10] = molecular target: T3, Zinc finger protein mex-5 (Caenorhabditis elegans, UniProt Q9XUB2); assay: potency of MEX-5 RNA-binding blockers – biochemical, C. elegans, fluorescence polarization, dose response (AID 1960)
T3 sequence (Q9XUB2 whole entry): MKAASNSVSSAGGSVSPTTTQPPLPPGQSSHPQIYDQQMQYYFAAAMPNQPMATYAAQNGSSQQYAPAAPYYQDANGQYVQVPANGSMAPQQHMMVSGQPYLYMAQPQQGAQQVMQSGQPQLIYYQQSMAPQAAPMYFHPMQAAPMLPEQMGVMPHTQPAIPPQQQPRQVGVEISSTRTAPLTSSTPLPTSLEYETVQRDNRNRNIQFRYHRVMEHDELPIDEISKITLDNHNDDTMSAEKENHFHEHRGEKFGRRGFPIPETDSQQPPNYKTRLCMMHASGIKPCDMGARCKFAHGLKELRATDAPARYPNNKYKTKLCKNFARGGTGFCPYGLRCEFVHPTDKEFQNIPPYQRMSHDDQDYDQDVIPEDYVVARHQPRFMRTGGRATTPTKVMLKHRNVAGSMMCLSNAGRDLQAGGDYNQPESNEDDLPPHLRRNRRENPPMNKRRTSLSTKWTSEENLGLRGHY

[11] = alpha-synuclein stem-loop luciferase translation blockers – H4 neuroglioma cells, luminescence, confirmation (AID 1988); type: functional, cell-based
[12] = Luminescence-based cell-based high throughput dose response assay to identify activators of the DAF-12 from the parasite S. stercoralis (ssDAF-12).; type: functional
[13] = molecular target: T4, Oxysterols receptor LXR-beta (Homo sapiens, UniProt P55055); type: functional, cell-based;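 also: Cell-based luminescence dose-response assay of agonist activity at LXR, run as a confirmatory counterscreen to a daf-12 agonist screen; HEK293 cells with Gal4-LXR fusion and GAL4-driven luciferase reporter; agonist potency from rising luciferase signal of a Gal4-LXR reporter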
T4 sequence (P55055 whole entry): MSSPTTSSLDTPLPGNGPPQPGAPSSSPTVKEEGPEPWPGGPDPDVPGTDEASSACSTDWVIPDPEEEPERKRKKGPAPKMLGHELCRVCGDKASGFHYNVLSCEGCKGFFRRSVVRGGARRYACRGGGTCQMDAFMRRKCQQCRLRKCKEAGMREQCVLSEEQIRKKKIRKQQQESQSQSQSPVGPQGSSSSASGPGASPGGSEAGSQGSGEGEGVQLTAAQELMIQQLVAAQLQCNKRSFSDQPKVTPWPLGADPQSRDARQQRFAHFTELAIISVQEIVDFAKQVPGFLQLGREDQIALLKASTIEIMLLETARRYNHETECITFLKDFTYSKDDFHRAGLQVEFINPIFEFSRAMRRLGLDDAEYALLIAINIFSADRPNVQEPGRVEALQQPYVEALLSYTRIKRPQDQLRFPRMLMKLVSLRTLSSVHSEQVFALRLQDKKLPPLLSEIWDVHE

[14] = cells
[15] = molecular target: Disintegrin and metalloproteinase domain-containing protein 17 (Homo sapiens, UniProt P78536); assay: exosite inhibitors of ADAM17, dose response, biochemical (AID 743260)
[16] = inhibition of ADAM10 peptide cleavage – biochemical, FRET peptide substrate, recombinant human ADAM10, selectivity assay for ADAM17 exosite inhibitor project, dose response (AID 743259);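 also: ADAM10 enzyme cleaving a FRET peptide substrate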
[17] = glucagon-like peptide-1 release potency in STC-1, concentration-response, half-maximal inhibitory concentration in the STC-1 line (AID 1117345); type: functional, cell-based
[18] = Potency on glucagon-like peptide 1 release, dose-response in NCI-H716 cell line, half maximal inhibitory concentration (AID 1117344); type: functional, cell-based
[19] = molecular target: Paired box protein Pax-8 (Homo sapiens, UniProt Q06710); assay: PAX8 transcriptional activity inhibition in RMG-I – RMG-I cells, luciferase, cherry-pick, dose response (AID 687027); type: functional, cell-based;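 also: luciferase reporter driven by Pax8 target thyroperoxidase promoter measured by SteadyGlo luminescence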
[20] = inhibitors acting on PAX2 in cells – cell-based, plate reader, dry powder samples, selectivity assay for PAX8 inhibitor project, dose response (AID 743048); type: functional;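 also: HEK293 cells carrying a WT1 promoter luciferase reporter driven by expressed Pax2; potency is for inhibition of Pax2 driven reporter signal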
[21] = COV362 cell viability loss – plate reader, dry powder, SA12, cytotoxicity control for PAX8 inhibitor project, dose response (AID 743144); type: functional, cell-based
[22] = OVCAR-3 cell viability loss – plate reader, dry powder samples, PAX8 inhibitor project, dose response (AID 743044); type: functional, cell-based
[23] = PAX5 cellular inhibition readout – cell-based, plate reader, dry powder samples, selectivity assay for PAX8 inhibitor project, dose response (AID 743047); type: functional;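 also: HEK293 cells carrying a Pax5 driven CD19 promoter luciferase reporter; potency of inhibitors that lower reporter luminescence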
[24] = COV434 cell viability loss – plate reader, dry powder, SA7, cytotoxicity control for PAX8 inhibitor project, dose response (AID 743145); type: functional, cell-based
[25] = OV-90 cell viability loss – plate reader, dry powder, SA8, PAX8 inhibitor project, dose response (AID 743149); type: functional, cell-based
[26] = PAX8-dependent cell viability loss – plate reader, dry powder, dose response (AID 743049); type: functional, cell-based

Chain of Genome polyprotein (Q2Q167 whole entry): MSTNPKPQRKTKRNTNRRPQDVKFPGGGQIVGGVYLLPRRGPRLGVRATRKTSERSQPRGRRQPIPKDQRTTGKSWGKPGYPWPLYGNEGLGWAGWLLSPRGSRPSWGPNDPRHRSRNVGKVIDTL
T1 sequence (P65502 whole entry): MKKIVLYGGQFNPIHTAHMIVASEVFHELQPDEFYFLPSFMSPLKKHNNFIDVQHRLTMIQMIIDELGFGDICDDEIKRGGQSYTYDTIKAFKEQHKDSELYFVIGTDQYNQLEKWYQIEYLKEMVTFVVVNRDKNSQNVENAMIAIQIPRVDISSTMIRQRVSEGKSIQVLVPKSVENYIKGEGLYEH
Chain of Estrogen receptor beta (Q92731 whole entry, the tested form may be a part): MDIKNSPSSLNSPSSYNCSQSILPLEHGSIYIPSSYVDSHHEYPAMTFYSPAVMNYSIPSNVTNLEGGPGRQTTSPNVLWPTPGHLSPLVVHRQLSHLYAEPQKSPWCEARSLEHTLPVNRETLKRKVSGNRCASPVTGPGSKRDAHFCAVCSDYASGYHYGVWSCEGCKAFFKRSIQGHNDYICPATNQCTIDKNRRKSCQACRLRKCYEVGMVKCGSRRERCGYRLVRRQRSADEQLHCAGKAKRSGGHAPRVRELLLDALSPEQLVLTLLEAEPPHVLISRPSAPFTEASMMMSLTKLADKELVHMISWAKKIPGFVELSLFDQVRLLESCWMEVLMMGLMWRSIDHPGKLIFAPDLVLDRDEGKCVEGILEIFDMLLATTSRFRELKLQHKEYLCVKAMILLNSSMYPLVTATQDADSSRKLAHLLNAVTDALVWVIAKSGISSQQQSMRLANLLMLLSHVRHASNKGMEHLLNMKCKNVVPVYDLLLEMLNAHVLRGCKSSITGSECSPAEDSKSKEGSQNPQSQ
Chain of Disintegrin and metalloproteinase domain-containing protein 17 (P78536 whole entry, the tested form may be a part): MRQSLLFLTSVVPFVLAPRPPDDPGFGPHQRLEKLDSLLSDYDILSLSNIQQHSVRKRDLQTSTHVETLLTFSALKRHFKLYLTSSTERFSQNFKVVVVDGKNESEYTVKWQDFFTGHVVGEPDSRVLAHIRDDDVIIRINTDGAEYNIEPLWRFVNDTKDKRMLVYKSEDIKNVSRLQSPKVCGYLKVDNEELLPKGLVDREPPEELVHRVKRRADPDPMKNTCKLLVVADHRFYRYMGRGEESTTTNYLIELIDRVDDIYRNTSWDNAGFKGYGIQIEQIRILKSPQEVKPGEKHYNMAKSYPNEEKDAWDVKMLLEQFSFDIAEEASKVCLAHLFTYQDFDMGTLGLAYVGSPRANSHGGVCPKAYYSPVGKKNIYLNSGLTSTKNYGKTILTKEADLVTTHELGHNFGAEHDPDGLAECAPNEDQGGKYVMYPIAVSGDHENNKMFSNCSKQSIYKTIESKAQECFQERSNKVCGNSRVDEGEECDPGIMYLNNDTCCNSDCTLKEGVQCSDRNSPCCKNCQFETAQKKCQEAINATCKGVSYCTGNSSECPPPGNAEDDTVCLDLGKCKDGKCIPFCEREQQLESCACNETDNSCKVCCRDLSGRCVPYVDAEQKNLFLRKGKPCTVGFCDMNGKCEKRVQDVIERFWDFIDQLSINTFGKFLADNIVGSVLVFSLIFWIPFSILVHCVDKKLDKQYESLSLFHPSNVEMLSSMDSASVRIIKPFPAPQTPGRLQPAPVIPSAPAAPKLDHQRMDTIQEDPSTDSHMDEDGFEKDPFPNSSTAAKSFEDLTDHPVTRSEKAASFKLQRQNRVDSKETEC
Chain of Paired box protein Pax-8 (Q06710 whole entry): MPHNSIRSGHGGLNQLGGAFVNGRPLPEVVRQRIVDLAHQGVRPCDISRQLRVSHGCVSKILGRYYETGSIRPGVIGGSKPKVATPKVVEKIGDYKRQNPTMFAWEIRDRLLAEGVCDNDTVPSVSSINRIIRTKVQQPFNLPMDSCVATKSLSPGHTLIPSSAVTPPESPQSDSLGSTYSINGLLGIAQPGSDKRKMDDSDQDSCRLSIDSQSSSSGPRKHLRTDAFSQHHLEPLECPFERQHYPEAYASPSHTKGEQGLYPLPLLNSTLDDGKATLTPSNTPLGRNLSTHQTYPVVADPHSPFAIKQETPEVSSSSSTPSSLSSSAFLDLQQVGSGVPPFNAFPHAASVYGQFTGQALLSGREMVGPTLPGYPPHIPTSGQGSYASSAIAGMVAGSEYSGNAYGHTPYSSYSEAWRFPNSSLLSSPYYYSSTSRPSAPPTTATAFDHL

With COCc1cc(CN2CCCC(CNC(=O)c3ccc(F)cc3)C2)ccc1OC (stereo unspecified) the EC50 [1] was 0.118 µM (active), the EC50 [2] was > 195 µM (not active) and the EC50 [3] was > 60 µM (not active).

For Cc1ccc(C2CC(c3cccs3)=NN2C(=O)CSc2nc(=O)n3ccc(C)cc3n2)cc1 (stereo unspecified), the IC50 [4] was > 49.8 µM (not active), the EC50 [1] was 2.54 µM (active) and the EC50 [3] was > 60 µM (not active). The IC50 [5] was 5.52 µM (active) and the IC50 [6] was 25.4 µM (active).

With CCC(=O)Nc1ccc(C(=O)Cn2nc(C(=O)O)c3ccccc3c2=O)cc1 the IC50 [7] was 5.09 µM (active).

With O=[N+]([O-])c1ccc(Cl)c2c1C1C=CCC1C(c1ccccn1)N2 (stereo unspecified) the IC50 [4] was > 49.8 µM (not active).

In the case of O=C1c2ccccc2C(=O)C1c1ccc2ccccc2n1, the EC50 [8] is reported as > 300 µM (not active), the EC50 [9] is reported as 7.02 µM (active) and the EC50 [10] is reported as > 300 µM (not active). The EC50 [11] was 3.11 µM (active), the IC50 [12] was > 67.5 µM (inactive) and the EC50 [13] was > 67.5 µM (inactive). For the same molecule, the EC50 [14] was > 67.5 µM (inactive).

For Cc1ccc(S(=O)(=O)N2C[C@H]3C(=O)C[C@@H](c4ccccc4)N(S(=O)(=O)c4ccc(C)cc4)[C@H]3C[C@H]2c2cccc3ccccc23)cc1, the IC50 [15] was > 69.5 µM (inactive) and the IC50 [16] was > 69.5 µM (inactive).

For COc1cc(Nc2c(C#N)cnc3cc(OCCCN4CCN(C)CC4)c(OC)cc23)c(Cl)cc1Cl, the IC50 [17] was > 40 µM (inactive) and the IC50 [18] was 25.1 µM (inactive).

For CCCC#Cc1ccc([C@@H]2[C@H](C#N)N(S(=O)(=O)c3cccc(F)c3)[C@H]2CO)cc1, the AC50 [19] was 5.57 µM (active), the AC50 [20] was 15.6 µM (active) and the AC50 [21] was 35.2 µM (active). For the same molecule, the AC50 [22] was 31.9 µM (active), the AC50 [23] was 14.2 µM (active) and the AC50 [24] was 63.8 µM (active). For the same molecule, the AC50 [25] was 26.9 µM (active) and the AC50 [26] was 17 µM (active).

With CCCOC(C(=O)OC1CCN(C)CC1)(c1ccccc1)c1ccccc1 the IC50 [17] was 23.8 µM (inactive) and the IC50 [18] was > 40 µM (inactive).
